Experimental data published in the supplement of paper PMC12350171.

What was measured:
Bacteroides fragilis NT = assay: IC25 growth inhibition; higher = less potent
Method in brief: (§1)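 Overnight monocultures grown in mGAM were moved into pre-reduced plates containing twofold drug dilutions, at a starting OD578 of 0.01 with 1% DMSO (or water). Plates were kept anaerobic and read hourly at OD578 in a plate reader, with at least three biological replicates. For each concentration, the median area under the growth curve was made monotonic, and IC25 was the lowest concentration whose median fell below a cutoff, reported as a tested interval. That cutoff was 0.75.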

[1] = system: Bacteroides thetaiotaomicron; assay: IC25 growth inhibition; higher = less potent
Method in brief: as §1

Bacteroides uniformis = assay: IC25 growth inhibition; higher = less potent
Method in brief: as §1

Bacteroides vulgatus = assay: IC25 growth inhibition; higher = less potent
Method in brief: as §1

Clostridium bolteae = assay: IC25 growth inhibition; higher = less potent
Method in brief: as §1

Clostridium perfringens = assay: IC25 growth inhibition; higher = less potent
Method in brief: as §1

Clostridium ramosum = assay: IC25 growth inhibition; higher = less potent
Method in brief: as §1

[2] = system: Clostridium saccharolyticum; assay: IC25 growth inhibition; higher = less potent
Method in brief: as §1

Collinsella aerofaciens = assay: IC25 growth inhibition; higher = less potent
Method in brief: as §1

Coprococcus comes = assay: IC25 growth inhibition; higher = less potent
Method in brief: as §1

Dorea formicigenerans = assay: IC25 growth inhibition; higher = less potent
Method in brief: as §1

Escherichia coli ED1a = assay: IC25 growth inhibition; higher = less potent
Method in brief: as §1

Eubacterium rectale = assay: IC25 growth inhibition; higher = less potent
Method in brief: as §1

[3] = system: Fusobacterium nucleatum subsp. Nucleatum; assay: IC25 growth inhibition; higher = less potent
Method in brief: as §1

Parabacteroides merdae = assay: IC25 growth inhibition; higher = less potent
Method in brief: as §1

Roseburia intestinalis = assay: IC25 growth inhibition; higher = less potent
Method in brief: as §1

Ruminococcus gnavus = assay: IC25 growth inhibition; higher = less potent
Method in brief: as §1

[4] = system: Salmonella enterica typhimurium; assay: IC25 growth inhibition; higher = less potent
Method in brief: as §1

Shigella flexneri = assay: IC25 growth inhibition; higher = less potent
Method in brief: as §1

[5] = system: Streptococcus parasanguinis; assay: IC25 growth inhibition; higher = less potent
Method in brief: as §1

Streptococcus salivarius = assay: IC25 growth inhibition; higher = less potent
Method in brief: as §1

Vibrio cholerae = assay: IC25 growth inhibition; higher = less potent
Method in brief: as §1

[6] = system: Yersinia enterocolitica WA-314; assay: IC25 growth inhibition; higher = less potent
Method in brief: as §1

[7] = system: Yersinia pseudotuberculosis; assay: IC25 growth inhibition; higher = less potent
Method in brief: as §1

[8] = system: Com21 synthetic gut community; assay: community biomass OD578 after 24 h drug treatment relative to untreated (fraction of untreated control); higher = more community growth; conditions: community: Com21 (Com20 + E. coli ED1a)
Description: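 Com21 (Com20 plus E. coli ED1a) was treated with drug for 24 h under anaerobic conditions in mGAM. Community OD578 was then measured and normalised to untreated Com21; mean of 3 biological replicates.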

[9] = drug pretreatment concentration 10 µM
[10] = drug pretreatment concentration 20 µM
[11] = drug pretreatment concentration 40 µM
[12] = drug pretreatment concentration 80 µM
[13] = drug pretreatment concentration 160 µM
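Wherever IC25 growth inhibition is given: lowest concentration where monotonic median growth AUC falls below 0.75 of drug-free control.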

Compound	IC25 growth inhibition (Bacteroides fragilis NT)	IC25 growth inhibition [1]	IC25 growth inhibition (Bacteroides uniformis)	IC25 growth inhibition (Bacteroides vulgatus)	IC25 growth inhibition (Clostridium bolteae)	IC25 growth inhibition (Clostridium perfringens)	IC25 growth inhibition (Clostridium ramosum)	IC25 growth inhibition [2]	IC25 growth inhibition (Collinsella aerofaciens)	IC25 growth inhibition (Coprococcus comes)	IC25 growth inhibition (Dorea formicigenerans)	IC25 growth inhibition (Escherichia coli ED1a)	IC25 growth inhibition (Eubacterium rectale)	IC25 growth inhibition [3]	IC25 growth inhibition (Parabacteroides merdae)	IC25 growth inhibition (Roseburia intestinalis)	IC25 growth inhibition (Ruminococcus gnavus)	IC25 growth inhibition [4]	IC25 growth inhibition (Shigella flexneri)	IC25 growth inhibition [5]	IC25 growth inhibition (Streptococcus salivarius)	IC25 growth inhibition (Vibrio cholerae)	IC25 growth inhibition [6]	IC25 growth inhibition [7]	community biomass OD578 [8, 9]	community biomass OD578 [8, 10]	community biomass OD578 [8, 11]	community biomass OD578 [8, 12]	community biomass OD578 [8, 13]	community biomass OD578 ([8]; drug pretreatment concentration 2.5 µM)	community biomass OD578 ([8]; drug pretreatment concentration 5 µM)
C[C@H]1O[C@H](O[C@H]2[C@H](O)[C@@H](O)[C@@H](O[C@H]3[C@H](O)[C@@H](O)C(O)O[C@@H]3CO)O[C@@H]2CO)[C@H](O)[C@@H](O)[C@@H]1N[C@H]1C=C(CO)[C@@H](O)[C@H](O)[C@H]1O (stereo partly drawn) [Acarbose]	≤ 10 µM	> 160 µM	> 160 µM	≤ 40 µM	> 160 µM	> 160 µM	> 160 µM	> 160 µM	> 160 µM	> 160 µM	> 160 µM	> 160 µM	≤ 40 µM	> 160 µM	> 160 µM	≤ 20 µM	> 160 µM	> 160 µM	> 160 µM	> 160 µM	> 160 µM	> 160 µM	> 160 µM	> 160 µM	1.03	1.01	1	1	0.989	–	–
C[C@@H](O[C@H]1OCCN(Cc2n[nH]c(=O)[nH]2)[C@H]1c1ccc(F)cc1)c1cc(C(F)(F)F)cc(C(F)(F)F)c1 [Aprepitant]	> 160 µM	> 160 µM	> 160 µM	> 160 µM	> 160 µM	> 160 µM	> 160 µM	> 160 µM	> 80 µM	> 160 µM	> 160 µM	> 160 µM	> 160 µM	> 160 µM	> 160 µM	> 160 µM	> 160 µM	> 160 µM	> 160 µM	> 160 µM	> 160 µM	> 160 µM	> 160 µM	> 80 µM	1	0.981	0.788	1.03	1.01	–	–
CCc1oc2ccccc2c1C(=O)c1cc(Br)c(O)c(Br)c1 [Benzbromarone]	≤ 20 µM	≤ 20 µM	≤ 10 µM	≤ 20 µM	≤ 40 µM	≤ 10 µM	≤ 20 µM	≤ 10 µM	≤ 40 µM	≤ 40 µM	≤ 40 µM	> 160 µM	≤ 20 µM	≤ 80 µM	≤ 20 µM	≤ 40 µM	≤ 20 µM	> 160 µM	> 160 µM	≤ 10 µM	≤ 10 µM	≤ 160 µM	> 160 µM	> 160 µM	0.877	0.86	0.812	0.687	0.301	–	–
CN(C)CCCN1c2ccccc2Sc2ccc(Cl)cc21 [Chlorpromazine]	≤ 80 µM	≤ 80 µM	≤ 80 µM	≤ 40 µM	≤ 160 µM	≤ 80 µM	> 160 µM	≤ 80 µM	≤ 160 µM	≤ 160 µM	≤ 40 µM	≤ 160 µM	≤ 40 µM	≤ 80 µM	≤ 40 µM	≤ 80 µM	≤ 40 µM	> 160 µM	≤ 160 µM	≤ 160 µM	≤ 80 µM	≤ 160 µM	> 160 µM	≤ 160 µM	1	0.983	0.941	0.927	0.813	–	–
CN(C)CC/C=C1/c2ccccc2Sc2ccc(Cl)cc21 [Chlorprothixene]	≤ 80 µM	≤ 40 µM	≤ 40 µM	≤ 40 µM	≤ 160 µM	≤ 80 µM	> 160 µM	≤ 80 µM	≤ 160 µM	≤ 160 µM	≤ 40 µM	> 160 µM	≤ 80 µM	≤ 80 µM	≤ 160 µM	≤ 40 µM	≤ 160 µM	> 160 µM	≤ 160 µM	> 160 µM	≤ 160 µM	≤ 20 µM	> 160 µM	≤ 160 µM	0.988	1.02	0.99	0.965	0.48	–	–
COCCOC(=O)C1=C(C)NC(C)=C(C(=O)OC/C=C/c2ccccc2)C1c1cccc([N+](=O)[O-])c1 (stereo not drawn) [Cilnidipine]	> 10 µM	> 10 µM	> 40 µM	> 10 µM	> 10 µM	> 20 µM	> 5 µM	> 10 µM	> 10 µM	> 10 µM	> 10 µM	> 40 µM	> 10 µM	> 10 µM	> 20 µM	> 10 µM	> 20 µM	> 5 µM	> 10 µM	> 20 µM	> 10 µM	> 10 µM	> 5 µM	> 10 µM	1.06	1.03	0.993	–	–	1.03	1
Clc1ccc(Cn2c(CN3CCCC3)nc3ccccc32)cc1 [Clemizole]	> 160 µM	≤ 160 µM	> 160 µM	≤ 160 µM	> 160 µM	≤ 160 µM	≤ 10 µM	≤ 80 µM	≤ 20 µM	≤ 2.5 µM	≤ 2.5 µM	> 160 µM	≤ 2.5 µM	≤ 160 µM	≤ 160 µM	≤ 5 µM	≤ 10 µM	> 160 µM	> 160 µM	> 160 µM	> 160 µM	≤ 80 µM	> 160 µM	> 160 µM	1.01	1	1.03	1.02	0.964	–	–
